In article PMC8894159, “Paltusotine, a novel oral once-daily nonpeptide SST2 receptor agonist, suppresses GH and IGF-1 in healthy volunteers” (Pituitary, 2022):
Read-outs that look alike come from different tables or passages of the source.

Key:
[1] = Safety and tolerability, multiple-dose cohorts; type: in vivo, human
Description: Safety assessments included monitoring of clinical laboratory tests, cardiovascular safety monitoring (continuous Holter monitoring, ECG, telemetry), and physical examinations conducted at scheduled times throughout the study in the research units as well as post-discharge (up to 9 days after the single-dose, or up to 11 days after the last dose for multiple-dose cohorts). Adverse events and concomitant medications were recorded. Laboratory samples for clinical chemistry, hematology, coagulation tests, and urinalysis were collected under fasted conditions. Participants who discontinued prematurely attended an early termination visit. In the multiple-dose cohorts, baseline serum TSH, ACTH, and prolactin samples were collected on Day -2, and an oral glucose tolerance test (OGTT) was conducted on Day -7 or earlier. These assessments were repeated on Day 8 (M1) or Day 11 (M2 and subsequent cohorts). A safety review committee oversaw the study and made decisions to escalate, expand or decrease the dose for the cohorts based on a review of demographics, pharmacokinetics, pharmacodynamics, and safety data in a blinded fashion. For the safety analysis, adverse events were coded using the Medical Dictionary for Regulatory Activities (MedDRA® Version 20.0). Adverse events were grouped by preferred terms. Treatment-emergent adverse events (TEAEs) were summarized with descriptive statistics.

[2] = Single ascending dose plasma pharmacokinetics in healthy volunteers; type: in vivo; details: human
Description: In the single-dose phase, participants were randomized 6:2 to paltusotine (1.25, 2.5, 5, 10, 20, 40, and 60 mg) or placebo in 7 cohorts (S1 to S7). Cohorts comparing oral bioavailability of solution versus capsules and the effect of a standardized high-fat, high-calorie breakfast on oral bioavailability of the capsule formulation employed the 10 mg dose level. In the multiple-dose phase, participants were randomized 6:3 to once-daily oral paltusotine capsules or placebo at doses of 5 mg for 7 days (M1, Day Last = Day 7), and 10, 20, and 30 mg daily for 10 days (M2, M3, M4, Day Last = Day 10). The initial starting dose of 1.25 mg in the single-dose phase was selected for this study based on nonclinical pharmacologic activity, pharmacokinetics, and safety studies. Subsequent doses were either specified in the protocol or were selected by the safety review committee responsible for the safety oversight of the study.
Single-dose cohorts: Plasma samples were collected on Day 1 (pre-dose, every 15 min up to 90 min post-dose, then at 2, 3, 4, 6, 8, 10, 12, 18, 24, 48, 72, 96, 120, and 144 h post-dose). Multiple-dose cohorts: For the 5 mg cohort, plasma samples were collected on Day 1 (pre-dose, every 15 min up to 90 min post-dose, then at 2, 3, 4, 6, 8, 10, 12, and 18 h post-dose), Days 2–6 (pre-dose and 2 h post-dose), Day 7 (same time points as Day 1, followed by samples at 18, 24, 48, 72, 96, 120, and 144 h post-dose). For all other multiple-dose cohorts, plasma samples were collected on Day 1 (pre-dose, every 15 min up to 90 min post-dose, then at 2, 3, 4, 6, 8, 10, 12, and 18 h post-dose), Days […] (same time points as Day 1, followed by samples at 18, 24, 48, 72, 96, 120, 144, 192, and 240 h post-dose).
Plasma pharmacokinetic sample analysis for paltusotine was determined using validated procedures by CPR Pharma Services (Thebarton, Australia). Briefly, plasma paltusotine concentrations were determined by high-pressure liquid chromatography (HPLC) coupled with tandem mass spectrometry detection (MS/MS). Deuterated paltusotine was used as an internal standard. Supported liquid extraction was used to extract paltusotine and the internal standard. The analyte was separated by HPLC using an ACE C18-AR column (Advanced Chromatography Technologies, Ltd, Aberdeen, Scotland), and the eluates were monitored by an API 4000™ LC–MS/MS System (Sciex, Framingham, MA) in positive multiple reaction monitoring mode. The extract was then assayed against a calibration curve. The data were acquired and integrated by the data acquisition software Analyst® (Sciex), linked directly to the API 4000™ LC–MS/MS System, and then processed using Watson LIMS™ software (Thermo Scientific, Waltham, MA), where applicable. The calibration range was 0.100 to 100 ng/mL using 100 μL of plasma, with a lower limit of quantification of 0.100 ng/mL. The inter-assay accuracy was 94% to 100%, and the inter-assay precision (% CV) was between 6.1% and 15%.
For assessing pharmacokinetics of paltusotine, the single-dose pharmacokinetic population included all randomized participants who received any amount of study drug with sufficient plasma concentration data. For the multiple-dose cohorts, only participants who received all doses were included. The relative bioavailability of the capsule formulation was determined by comparing its pharmacokinetic parameters with those of the solution formulation at the 10 mg dose. Food effect was determined at the same dose by comparing pharmacokinetic parameters in the fasting state to those when paltusotine was administered with a high-fat, high-calorie meal. For both formulation and food effect, ANOVA with treatment as a fixed effect and subject as a random effect was performed. Data for peak concentration (Cmax), AUC0-last, and AUC0-inf were natural log-transformed.

[3] = multiple-dosing, safety population N = 24
[4] = multiple-dosing, safety population N = 24, listed as Paltusotine
[5] = one subject, cohort M3 20 mg, discontinued after Day 5
[6] = oral, single dose 40 mg capsules, fasted, mean ± SD
[7] = oral, single dose 60 mg capsules, fasted, mean ± SD
[8] = single dose 1.25 mg oral solution, fasted, mean ± SD
[9] = single dose 2.5 mg oral solution, fasted, mean ± SD
[10] = single dose 5 mg oral solution, fasted, mean ± SD
[11] = single dose 10 mg oral solution, fasted, mean ± SD
[12] = single dose 20 mg oral solution, fasted, mean ± SD

For `Cl.N#Cc1cccc(-c2ccc3ncc(-c4cc(F)cc(F)c4)c(N4CCC(N)CC4)c3c2)c1O` [paltusotine, 3-[4-(4-Aminopiperidin-1-yl)-3-(3,5-difluorophenyl)quinolin-6-yl]-2-hydroxybenzonitrile hydrochloride], which “increase in glucose AUC0-3 upon 75 g oral glucose challenge compared to baseline” value ([1]; 30 mg multiple dose, 95% CI 1.8-4.6, placebo 1.5) is on record?
Its value is 3.2 mmol·h/L.

And the “heart rate, ECG morphology, PR duration, QRS interval, QTcF interval” value ([1]; all cohorts)?
The value was “no clinically meaningful changes”.

And the fasting plasma glucose ([1]; multiple-dose cohorts)?
The fasting plasma glucose was “not significantly changed”.

What about the “share of TEAEs occurring at a dose level of 10 mg or higher” value ([1]; multiple-dose cohorts) of the same compound?
Its value is 78%.

What about the “Abdominal pain (TEAE)” value [1, 3] of the same compound?
The value was 4 n (%).

What about the “Diarrhea (TEAE)” value [1, 3] of the same compound?
The value was 4 n (%).

What about the “Headache (TEAE)” value [1, 3] of the same compound?
Its value is 3 n (%).

What about the “Hyperglycemia (TEAE)” value [1, 3] of the same compound?
The value was 2 (8.3%) n (%).

What about the “Lipase/pancreatic enzymes increased (TEAE)” value [1, 3] of the same compound?
The value was 2 (8.3%) n (%).

And the “Participants with at least 1 TEAE” value [1, 3]?
Its value is 17 (70.8%) n (%).

And the “Upper respiratory tract infection (TEAE)” value [1, 3]?
The value was 2 (8.3%) n (%).

And the “Ventricular tachycardia (non-sustained) (TEAE)” value [1, 3]?
The value was 2 (8.3%) n (%).

And the “Abdominal pain (TEAE)” value [1, 4]?
Its value is 4 (16.7%) n (%).

What about the “Diarrhea (TEAE)” value [1, 4] of the same compound?
The value was 4 (16.7%) n (%).

And the “Headache (TEAE)” value [1, 4]?
The value was 3 (12.5%) n (%).

And the amylase peak [1, 5]?
Its amylase peak is 2 times the upper limit of normal.

What about the lipase peak [1, 5] of the same compound?
The lipase peak was 3.9 times the upper limit of normal.

What about the lipase elevation ([1]; one subject, cohort M4 30 mg, 24 h after the tenth dose) of the same compound?
Its lipase elevation is 1.7 times the upper limit of normal.

And the “TSH, ACTH, or prolactin levels” value ([1]; repeated administration)?
The value was “no consistent trends of clinical relevance”.

What about the tolerability ([1]; repeated daily capsules, 7 days (5 mg) and 10 days (10, 20, 30 mg)) of the same compound?
Its tolerability is “well tolerated”.

What about the half-life ([2]; oral, overall summary (abstract), read-out: half-life of elimination (converted)) of the same compound?
Its half-life is roughly 30 h.

And the half-life ([2]; oral, sampling up to 144 h post-dose (single-dose cohorts and 5 mg multiple-dose cohort), range, read-out: t1/2 (converted))?
Its half-life is 22 to 34 h.

What about the AUC(0-inf) [2, 6] of the same compound?
Its AUC(0-inf) is 2650 ± 1200 ng·h/mL.

And the Cmax [2, 6]?
The Cmax was 185 ± 118 ng/mL.

What about the Tmax ([2]; oral, single dose 40 mg capsules, fasted, mean ± SD, read-out: Tmax) of the same compound?
Its Tmax is 3.4 ± 1.1 h.

What about the half-life ([2]; oral, single dose 40 mg capsules, fasted, mean ± SD, read-out: t1/2 (converted)) of the same compound?
The half-life was 27 ± 3.1 h.

And the AUC(0-inf) [2, 7]?
The AUC(0-inf) was 2300 ± 1060 ng·h/mL.

What about the Cmax [2, 7] of the same compound?
Its Cmax is 154 ± 77.6 ng/mL.

And the Tmax ([2]; oral, single dose 60 mg capsules, fasted, mean ± SD, read-out: Tmax)?
The Tmax was 3 ± 1.2 h.

And the half-life ([2]; oral, single dose 60 mg capsules, fasted, mean ± SD, read-out: t1/2 (converted))?
Its half-life is 25 ± 2.1 h.

And the AUC(0-inf) [2, 8]?
Its AUC(0-inf) is 122 ± 25.7 ng·h/mL.

And the Cmax [2, 8]?
The Cmax was 9.81 ± 1.56 ng/mL.

What about the Tmax ([2]; single dose 1.25 mg oral solution, fasted, mean ± SD, read-out: Tmax) of the same compound?
Its Tmax is 1.3 ± 0.44 h.

And the half-life ([2]; single dose 1.25 mg oral solution, fasted, mean ± SD, read-out: t1/2 (converted))?
The half-life was 22 ± 5.5 h.

What about the AUC(0-inf) [2, 9] of the same compound?
The AUC(0-inf) was 320 ± 66.3 ng·h/mL.

What about the Cmax [2, 9] of the same compound?
The Cmax was 22.7 ± 4.74 ng/mL.

And the Tmax ([2]; single dose 2.5 mg oral solution, fasted, mean ± SD, read-out: Tmax)?
Its Tmax is 1.6 ± 0.8 h.

And the half-life ([2]; single dose 2.5 mg oral solution, fasted, mean ± SD, read-out: t1/2 (converted))?
The half-life was 29 ± 9 h.

And the AUC(0-inf) [2, 10]?
Its AUC(0-inf) is 590 ± 93.7 ng·h/mL.

And the Cmax [2, 10]?
Its Cmax is 48.1 ± 7.05 ng/mL.

And the Tmax ([2]; single dose 5 mg oral solution, fasted, mean ± SD, read-out: Tmax)?
Its Tmax is 1.3 ± 0.41 h.

And the half-life ([2]; single dose 5 mg oral solution, fasted, mean ± SD, read-out: t1/2 (converted))?
The half-life was 25 ± 9.4 h.

And the AUC(0-inf) [2, 11]?
The AUC(0-inf) was 1650 ± 464 ng·h/mL.

And the Cmax [2, 11]?
Its Cmax is 95.2 ± 19.3 ng/mL.

And the Tmax ([2]; single dose 10 mg oral solution, fasted, mean ± SD, read-out: Tmax)?
Its Tmax is 2.2 ± 1.3 h.

What about the half-life ([2]; single dose 10 mg oral solution, fasted, mean ± SD, read-out: t1/2 (converted)) of the same compound?
The half-life was 29 ± 4.3 h.

And the AUC(0-inf) [2, 12]?
The AUC(0-inf) was 2960 ± 963 ng·h/mL.

What about the Cmax [2, 12] of the same compound?
The Cmax was 167 ± 29.1 ng/mL.

What about the Tmax ([2]; single dose 20 mg oral solution, fasted, mean ± SD, read-out: Tmax) of the same compound?
The Tmax was 1.9 ± 1 h.

What about the half-life ([2]; single dose 20 mg oral solution, fasted, mean ± SD, read-out: t1/2 (converted)) of the same compound?
The half-life was 29 ± 5 h.

What about the Tmax ([2]; single-dose oral solution, fasted, range across 1.25-20 mg, read-out: Tmax (time of median peak concentrations)) of the same compound?
Its Tmax is 1.3 to 2.2 h.

What about the half-life ([2]; single-dose oral solution, fasted, range across 1.25-20 mg, read-out: apparent terminal elimination t1/2) of the same compound?
The half-life was 22 to 29 h.
